Data on two compounds can be found in US9604936B2, “Besylate salt of a BTK inhibitor” (Celgene Avilomics Research, Inc., priority 2010, dated 2017).

Read-outs that look alike come from different tables or passages of the source. A value given as a limit tells only on which side of the number the result lay.

Data set [1] deals with B-cell proliferation. As to conditions: in vitro; cited from earlier work.
For the next data set, the target named is BTK (Homo sapiens, UniProt Q06187). To be noted: enzymatic and cellular assays; cited from earlier work.
BTK, sequence (Q06187 whole entry, species assumed): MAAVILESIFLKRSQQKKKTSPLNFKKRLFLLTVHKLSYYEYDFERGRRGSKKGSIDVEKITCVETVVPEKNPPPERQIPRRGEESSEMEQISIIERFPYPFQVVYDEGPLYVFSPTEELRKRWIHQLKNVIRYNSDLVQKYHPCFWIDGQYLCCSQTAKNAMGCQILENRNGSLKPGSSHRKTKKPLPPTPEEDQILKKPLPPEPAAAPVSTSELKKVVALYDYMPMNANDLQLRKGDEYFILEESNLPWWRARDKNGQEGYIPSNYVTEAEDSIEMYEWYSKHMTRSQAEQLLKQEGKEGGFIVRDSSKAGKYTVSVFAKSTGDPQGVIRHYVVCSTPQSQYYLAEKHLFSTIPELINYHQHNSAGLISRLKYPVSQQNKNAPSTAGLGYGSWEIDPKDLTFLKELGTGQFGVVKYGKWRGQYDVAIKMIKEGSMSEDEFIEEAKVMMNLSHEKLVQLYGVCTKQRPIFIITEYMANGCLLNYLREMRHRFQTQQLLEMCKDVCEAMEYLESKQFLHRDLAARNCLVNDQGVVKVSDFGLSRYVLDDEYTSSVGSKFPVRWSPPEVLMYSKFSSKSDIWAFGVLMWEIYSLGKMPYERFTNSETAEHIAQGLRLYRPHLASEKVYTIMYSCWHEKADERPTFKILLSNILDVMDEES
The test system of data set [2] is B-cell proliferation. As to conditions: in vivo; cited from earlier work.
Data set [3] can be described thus: Solubility of Compound 2 by manual dilution combined with visual observation. The format is physicochemical. As to conditions: thermodynamic from solid. As to the method:
Solubility of Compound 2, at room temperature, was measured in seventeen solvents and two solvent mixtures by manual dilution combined with visual observation.

Turning to `C=CC(=O)Nc1cccc(Nc2nc(Nc3ccc(OCCOC)cc3)ncc2F)c1` [Compound 1, N-(3-(5-fluoro-2-(4-(2-methoxyethoxy)phenylamino)pyrimidin-4-ylamino)phenyl)acrylamide], the “inhibition of B-cell proliferation” value in the data set with B-cell proliferation [1] and in the data set on B-cell proliferation [2] was “inhibit B-cell proliferation” throughout. Also, the “inhibition of BTK” value at BTK was “covalent, irreversible inhibition of BTK”.
Turning to `C=CC(=O)Nc1cccc(Nc2nc(Nc3ccc(OCCOC)cc3)ncc2F)c1.O=S(=O)(O)c1ccccc1` [Compound 2], the solubility in data set [3] (aqueous with cosolvent or surfactant or cyclodextrin, 1:1 DMF:H2O, room temperature) was 71000 to 106000 µg/mL; in data set [3] (aqueous with cosolvent or surfactant or cyclodextrin, 3:7 DMF:H2O, room temperature) it was 16000 to 18000 µg/mL; in data set [3] (organic solvent or mixture, 1,4-dioxane, room temperature), below 1000 µg/mL; in data set [3] (organic solvent or mixture, Acetone, room temperature), around 2500 µg/mL; in data set [3] (organic solvent or mixture, Anisole, room temperature), below 1000 µg/mL; in data set [3] (organic solvent or mixture, Benzyl alcohol, room temperature), 97000 to 194000 µg/mL. Further, the solubility in data set [3] (organic solvent or mixture, CH2Cl2, room temperature) was below 1000 µg/mL; in data set [3] (organic solvent or mixture, CH3CN, room temperature) it was around 2000 µg/mL; in data set [3] (organic solvent or mixture, DMF, room temperature), above 184000 µg/mL; in data set [3] (organic solvent or mixture, Ethanol, room temperature) it was around 2000 µg/mL; in data set [3] (organic solvent or mixture, Ethyl Acetate, room temperature), below 1000 µg/mL; in data set [3] (organic solvent or mixture, Isopropanol, room temperature), below 1000 µg/mL. Moreover, the solubility in data set [3] (organic solvent or mixture, Methanol, room temperature) was 26000 to 29000 µg/mL; in data set [3] (organic solvent or mixture, Pyridine, room temperature), above 234000 µg/mL; in data set [3] (organic solvent or mixture, TBME, room temperature), below 1000 µg/mL; in data set [3] (organic solvent or mixture, THF, room temperature) it was around 2000 µg/mL; in data set [3] (organic solvent or mixture, Toluene, room temperature) it was below 1000 µg/mL; in data set [3] (Water, room temperature), below 1000 µg/mL.

A word on the solubility: it is the concentration that dissolves in the medium under given conditions.
